Experiments:
[1] = system: Tyrosine-protein kinase ABL1 (Homo sapiens), P00519 [Q252H]; conditions: Compound concentration 1000.0 nM
[2] = target: RAC-gamma serine/threonine-protein kinase (Homo sapiens) (UniProt Q9Y243); conditions: Compound concentration 1000.0 nM
[3] = target: Aurora kinase B (Homo sapiens) (UniProt Q96GD4); conditions: Compound concentration 1000.0 nM
[4] = target: Peripheral plasma membrane protein CASK (Homo sapiens) (UniProt O14936); conditions: Compound concentration 1000.0 nM
[5] = target: Cyclin-dependent kinase 8 (Homo sapiens) (UniProt P49336); conditions: Compound concentration 1000.0 nM
[6] = target: Serine/threonine-protein kinase Chk2 (Homo sapiens) (UniProt O96017); conditions: Compound concentration 1000.0 nM
Chain of Serine/threonine-protein kinase Chk2 (Homo sapiens) (O96017 whole entry): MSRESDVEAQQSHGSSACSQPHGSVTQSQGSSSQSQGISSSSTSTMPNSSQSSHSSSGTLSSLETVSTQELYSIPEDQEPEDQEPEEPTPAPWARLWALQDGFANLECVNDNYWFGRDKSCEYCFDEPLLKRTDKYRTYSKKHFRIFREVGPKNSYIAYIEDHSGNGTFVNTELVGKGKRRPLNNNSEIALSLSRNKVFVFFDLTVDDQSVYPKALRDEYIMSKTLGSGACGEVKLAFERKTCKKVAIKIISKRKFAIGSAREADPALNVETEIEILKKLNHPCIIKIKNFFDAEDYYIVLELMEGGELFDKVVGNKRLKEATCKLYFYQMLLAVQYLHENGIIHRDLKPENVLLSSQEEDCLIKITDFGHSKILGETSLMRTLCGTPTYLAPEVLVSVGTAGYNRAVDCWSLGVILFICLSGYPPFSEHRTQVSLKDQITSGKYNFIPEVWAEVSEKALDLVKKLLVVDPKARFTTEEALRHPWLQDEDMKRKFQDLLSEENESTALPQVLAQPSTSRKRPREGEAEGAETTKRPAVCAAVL

[7] = target: Dual specificity protein kinase CLK2 (Homo sapiens) (UniProt P49760); conditions: Compound concentration 1000.0 nM
[8] = target: Serine/threonine-protein kinase DCLK1 (Homo sapiens) (UniProt O15075); conditions: Compound concentration 1000.0 nM
Chain of Serine/threonine-protein kinase DCLK1 (Homo sapiens) (O15075 whole entry): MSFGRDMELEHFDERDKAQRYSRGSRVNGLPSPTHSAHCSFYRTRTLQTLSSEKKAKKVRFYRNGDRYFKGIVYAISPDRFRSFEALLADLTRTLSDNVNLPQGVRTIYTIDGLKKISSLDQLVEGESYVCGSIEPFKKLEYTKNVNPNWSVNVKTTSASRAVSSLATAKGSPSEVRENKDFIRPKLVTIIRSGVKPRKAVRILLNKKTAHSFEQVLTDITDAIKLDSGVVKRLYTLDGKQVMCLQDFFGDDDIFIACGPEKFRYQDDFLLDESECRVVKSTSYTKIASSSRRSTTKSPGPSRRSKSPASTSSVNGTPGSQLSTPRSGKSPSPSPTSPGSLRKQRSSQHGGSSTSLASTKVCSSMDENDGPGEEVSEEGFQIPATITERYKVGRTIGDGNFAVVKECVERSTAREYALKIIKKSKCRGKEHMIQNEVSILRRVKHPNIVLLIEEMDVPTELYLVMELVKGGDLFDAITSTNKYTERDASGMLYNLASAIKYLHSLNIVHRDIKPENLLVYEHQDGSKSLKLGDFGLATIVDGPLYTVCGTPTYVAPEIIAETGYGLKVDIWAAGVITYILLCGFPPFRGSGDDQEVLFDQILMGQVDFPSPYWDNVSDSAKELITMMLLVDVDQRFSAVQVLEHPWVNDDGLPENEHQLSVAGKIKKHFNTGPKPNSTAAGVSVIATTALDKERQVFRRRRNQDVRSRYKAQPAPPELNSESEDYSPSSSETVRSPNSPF

[9] = target: Ephrin type-A receptor 4 (Homo sapiens) (UniProt P54764); conditions: Compound concentration 1000.0 nM
[10] = system: Receptor-type tyrosine-protein kinase FLT3 (Homo sapiens), P36888 [UNDEFINED MUTATION]; conditions: Compound concentration 1000.0 nM
[11] = target: Receptor-type tyrosine-protein kinase FLT3 (Homo sapiens) (UniProt P36888); conditions: Compound concentration 1000.0 nM
[12] = target: Tyrosine-protein kinase JAK1 (Homo sapiens) (UniProt P23458); conditions: Compound concentration 1000.0 nM
[13] = system: Mast/stem cell growth factor receptor Kit (Homo sapiens), P10721 [V559D]; conditions: Compound concentration 1000.0 nM
[14] = system: Mast/stem cell growth factor receptor Kit (Homo sapiens), P10721 [V559D,T670I]; conditions: Compound concentration 1000.0 nM
[15] = target: Microtubule-associated serine/threonine-protein kinase 1 (Homo sapiens) (UniProt Q9Y2H9); conditions: Compound concentration 1000.0 nM
[16] = target: Dual specificity mitogen-activated protein kinase kinase 2 (Homo sapiens) (UniProt P36507); conditions: Compound concentration 1000.0 nM
[17] = target: Dual specificity mitogen-activated protein kinase kinase 3 (Homo sapiens) (UniProt P46734); conditions: Compound concentration 1000.0 nM
[18] = target: Dual specificity mitogen-activated protein kinase kinase 5 (Homo sapiens) (UniProt Q13163); conditions: Compound concentration 1000.0 nM
[19] = target: Mitogen-activated protein kinase kinase kinase 9 (Homo sapiens) (UniProt P80192); conditions: Compound concentration 1000.0 nM
Chain of Mitogen-activated protein kinase kinase kinase 9 (Homo sapiens) (P80192 whole entry, looked up): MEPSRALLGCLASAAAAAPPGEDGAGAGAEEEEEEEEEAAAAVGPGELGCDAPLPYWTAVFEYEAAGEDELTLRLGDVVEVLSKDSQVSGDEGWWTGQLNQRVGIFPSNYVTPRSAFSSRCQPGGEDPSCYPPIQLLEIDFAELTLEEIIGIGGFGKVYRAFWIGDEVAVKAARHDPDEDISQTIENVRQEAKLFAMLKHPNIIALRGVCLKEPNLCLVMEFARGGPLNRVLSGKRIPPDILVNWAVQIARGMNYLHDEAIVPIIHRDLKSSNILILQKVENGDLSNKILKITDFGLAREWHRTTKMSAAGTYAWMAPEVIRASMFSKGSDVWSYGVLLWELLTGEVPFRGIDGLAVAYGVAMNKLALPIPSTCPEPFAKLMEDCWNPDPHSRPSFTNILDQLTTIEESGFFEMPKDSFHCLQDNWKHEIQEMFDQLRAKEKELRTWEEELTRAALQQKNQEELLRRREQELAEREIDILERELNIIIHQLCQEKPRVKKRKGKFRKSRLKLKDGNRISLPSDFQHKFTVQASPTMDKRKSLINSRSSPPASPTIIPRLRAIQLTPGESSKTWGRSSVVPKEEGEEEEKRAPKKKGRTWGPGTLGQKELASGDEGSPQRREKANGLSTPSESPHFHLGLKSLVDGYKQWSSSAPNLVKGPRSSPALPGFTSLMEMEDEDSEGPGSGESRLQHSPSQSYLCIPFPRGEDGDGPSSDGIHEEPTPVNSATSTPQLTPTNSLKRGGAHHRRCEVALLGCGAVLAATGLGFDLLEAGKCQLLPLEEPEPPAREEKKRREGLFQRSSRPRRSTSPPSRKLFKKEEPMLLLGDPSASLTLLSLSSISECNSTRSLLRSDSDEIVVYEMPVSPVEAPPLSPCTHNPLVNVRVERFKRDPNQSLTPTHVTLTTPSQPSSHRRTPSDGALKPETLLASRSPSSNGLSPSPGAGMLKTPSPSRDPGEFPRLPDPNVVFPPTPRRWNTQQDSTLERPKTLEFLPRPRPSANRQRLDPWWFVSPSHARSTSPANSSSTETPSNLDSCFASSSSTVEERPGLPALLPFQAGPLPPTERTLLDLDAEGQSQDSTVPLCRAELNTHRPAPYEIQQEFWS

[20] = target: Serine/threonine-protein kinase mTOR (Homo sapiens) (UniProt P42345); conditions: Compound concentration 1000.0 nM
[21] = target: Myosin light chain kinase 2, skeletal/cardiac muscle (Homo sapiens) (UniProt Q9H1R3); conditions: Compound concentration 1000.0 nM
[22] = target: Serine/threonine-protein kinase Nek10 (Homo sapiens) (UniProt Q6ZWH5); conditions: Compound concentration 1000.0 nM
Chain of Serine/threonine-protein kinase Nek10 (Homo sapiens) (Q6ZWH5 whole entry): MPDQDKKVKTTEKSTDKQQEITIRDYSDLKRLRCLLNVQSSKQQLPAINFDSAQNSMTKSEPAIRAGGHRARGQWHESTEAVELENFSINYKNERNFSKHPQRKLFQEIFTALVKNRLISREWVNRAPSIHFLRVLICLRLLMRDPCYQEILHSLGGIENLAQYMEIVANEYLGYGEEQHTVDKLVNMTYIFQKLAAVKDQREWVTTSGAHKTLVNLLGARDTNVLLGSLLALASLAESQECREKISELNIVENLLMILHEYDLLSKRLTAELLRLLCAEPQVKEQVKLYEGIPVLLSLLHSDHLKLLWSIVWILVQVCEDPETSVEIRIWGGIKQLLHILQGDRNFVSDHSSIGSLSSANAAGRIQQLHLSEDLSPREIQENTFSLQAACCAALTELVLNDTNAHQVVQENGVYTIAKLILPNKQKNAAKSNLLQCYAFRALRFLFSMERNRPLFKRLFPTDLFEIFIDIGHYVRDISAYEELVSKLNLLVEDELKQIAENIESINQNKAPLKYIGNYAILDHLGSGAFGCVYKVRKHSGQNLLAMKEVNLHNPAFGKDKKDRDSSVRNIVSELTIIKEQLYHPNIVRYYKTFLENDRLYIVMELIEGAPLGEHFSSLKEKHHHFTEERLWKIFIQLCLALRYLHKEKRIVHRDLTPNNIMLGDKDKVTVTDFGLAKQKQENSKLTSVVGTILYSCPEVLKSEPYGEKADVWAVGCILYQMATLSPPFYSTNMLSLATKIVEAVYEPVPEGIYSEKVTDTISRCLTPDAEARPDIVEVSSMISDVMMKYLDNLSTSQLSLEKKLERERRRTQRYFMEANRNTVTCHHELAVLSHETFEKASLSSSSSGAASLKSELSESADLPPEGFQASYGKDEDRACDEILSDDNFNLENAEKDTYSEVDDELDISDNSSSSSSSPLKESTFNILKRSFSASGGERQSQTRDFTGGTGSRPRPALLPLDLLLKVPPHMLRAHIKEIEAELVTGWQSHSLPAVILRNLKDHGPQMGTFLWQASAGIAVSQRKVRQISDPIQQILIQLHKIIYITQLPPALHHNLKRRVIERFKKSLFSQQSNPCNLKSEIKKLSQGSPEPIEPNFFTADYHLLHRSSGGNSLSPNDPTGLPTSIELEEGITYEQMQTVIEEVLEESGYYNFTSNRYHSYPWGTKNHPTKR

[23] = target: Mitogen-activated protein kinase 13 (Homo sapiens) (UniProt O15264); conditions: Compound concentration 1000.0 nM
[24] = target: Cyclin-dependent kinase 18 (Homo sapiens) (UniProt Q07002); conditions: Compound concentration 1000.0 nM
[25] = target: Phosphatidylinositol 4-phosphate 3-kinase C2 domain-containing subunit beta (Homo sapiens) (UniProt O00750); conditions: Compound concentration 1000.0 nM
[26] = target: Phosphatidylinositol 4-phosphate 5-kinase type-1 gamma (Homo sapiens) (UniProt O60331); conditions: Compound concentration 1000.0 nM
Chain of Phosphatidylinositol 4-phosphate 5-kinase type-1 gamma (Homo sapiens) (O60331 whole entry): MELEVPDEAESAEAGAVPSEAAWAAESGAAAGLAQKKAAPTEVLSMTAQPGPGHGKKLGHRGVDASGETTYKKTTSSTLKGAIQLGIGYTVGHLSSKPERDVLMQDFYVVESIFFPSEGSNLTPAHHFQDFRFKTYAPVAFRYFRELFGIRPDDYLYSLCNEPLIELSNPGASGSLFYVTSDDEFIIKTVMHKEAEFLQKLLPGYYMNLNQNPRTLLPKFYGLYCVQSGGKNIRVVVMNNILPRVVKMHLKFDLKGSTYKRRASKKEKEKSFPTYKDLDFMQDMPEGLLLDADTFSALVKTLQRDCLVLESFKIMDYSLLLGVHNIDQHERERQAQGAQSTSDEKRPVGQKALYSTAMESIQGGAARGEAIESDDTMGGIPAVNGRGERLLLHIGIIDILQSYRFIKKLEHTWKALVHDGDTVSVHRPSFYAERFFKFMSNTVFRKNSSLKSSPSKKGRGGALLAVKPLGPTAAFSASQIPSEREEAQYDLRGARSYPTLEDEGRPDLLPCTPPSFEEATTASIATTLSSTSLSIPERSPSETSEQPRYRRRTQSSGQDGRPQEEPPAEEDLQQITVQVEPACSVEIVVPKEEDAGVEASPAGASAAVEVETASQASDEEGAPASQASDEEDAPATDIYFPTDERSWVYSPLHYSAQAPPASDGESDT

[27] = target: Serine/threonine-protein kinase PknB (Mycobacterium tuberculosis) (UniProt P9WI81); conditions: Compound concentration 1000.0 nM
[28] = target: Serine/threonine-protein kinase D1 (Homo sapiens) (UniProt Q15139); conditions: Compound concentration 1000.0 nM
[29] = target: Protein-tyrosine kinase 2-beta (Homo sapiens) (UniProt Q14289); conditions: Compound concentration 1000.0 nM
[30] = target: Serine/threonine-protein kinase RIO3 (Homo sapiens) (UniProt O14730); conditions: Compound concentration 1000.0 nM
[31] = target: SNF-related serine/threonine-protein kinase (Homo sapiens) (UniProt Q9NRH2); conditions: Compound concentration 1000.0 nM
[32] = target: SRSF protein kinase 3 (Homo sapiens) (UniProt Q9UPE1); conditions: Compound concentration 1000.0 nM
[33] = target: Serine/threonine-protein kinase tousled-like 1 (Homo sapiens) (UniProt Q9UKI8); conditions: Compound concentration 1000.0 nM
Chain of Serine/threonine-protein kinase tousled-like 1 (Homo sapiens) (Q9UKI8 whole entry): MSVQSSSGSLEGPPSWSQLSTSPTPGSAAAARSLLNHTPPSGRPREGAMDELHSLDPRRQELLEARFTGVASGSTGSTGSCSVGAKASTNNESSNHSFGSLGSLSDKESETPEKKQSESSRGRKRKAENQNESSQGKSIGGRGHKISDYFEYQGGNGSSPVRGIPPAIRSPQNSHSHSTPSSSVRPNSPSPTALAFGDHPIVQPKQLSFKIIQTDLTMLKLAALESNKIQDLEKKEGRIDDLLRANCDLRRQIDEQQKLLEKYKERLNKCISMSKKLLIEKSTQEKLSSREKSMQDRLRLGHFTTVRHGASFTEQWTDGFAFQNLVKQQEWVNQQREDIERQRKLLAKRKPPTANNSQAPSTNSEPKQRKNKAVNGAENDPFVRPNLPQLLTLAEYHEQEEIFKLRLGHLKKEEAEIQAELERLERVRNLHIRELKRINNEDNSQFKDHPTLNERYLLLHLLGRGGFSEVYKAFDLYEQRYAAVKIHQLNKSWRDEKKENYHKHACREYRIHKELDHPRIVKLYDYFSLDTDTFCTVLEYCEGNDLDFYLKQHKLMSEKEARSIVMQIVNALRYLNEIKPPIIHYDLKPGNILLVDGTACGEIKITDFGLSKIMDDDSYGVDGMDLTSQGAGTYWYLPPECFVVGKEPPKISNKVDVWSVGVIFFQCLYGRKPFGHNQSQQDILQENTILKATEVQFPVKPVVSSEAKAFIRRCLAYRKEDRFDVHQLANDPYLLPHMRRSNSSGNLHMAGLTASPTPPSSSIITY

[34] = target: Activated CDC42 kinase 1 (Homo sapiens) (UniProt Q07912); conditions: Compound concentration 1000.0 nM
[35] = target: High affinity nerve growth factor receptor (Homo sapiens) (UniProt P04629); conditions: Compound concentration 1000.0 nM
[36] = target: D(1A) dopamine receptor (Homo sapiens) (UniProt P21728); conditions: Compound concentration 10.0 uM
[37] = target: Beta-1 adrenergic receptor (Homo sapiens) (UniProt P08588); conditions: Compound concentration 10.0 uM
[38] = target: T1, Muscarinic acetylcholine receptor M1 (Homo sapiens) (UniProt P11229); conditions: Compound concentration 10.0 uM
T1 sequence (whole entry): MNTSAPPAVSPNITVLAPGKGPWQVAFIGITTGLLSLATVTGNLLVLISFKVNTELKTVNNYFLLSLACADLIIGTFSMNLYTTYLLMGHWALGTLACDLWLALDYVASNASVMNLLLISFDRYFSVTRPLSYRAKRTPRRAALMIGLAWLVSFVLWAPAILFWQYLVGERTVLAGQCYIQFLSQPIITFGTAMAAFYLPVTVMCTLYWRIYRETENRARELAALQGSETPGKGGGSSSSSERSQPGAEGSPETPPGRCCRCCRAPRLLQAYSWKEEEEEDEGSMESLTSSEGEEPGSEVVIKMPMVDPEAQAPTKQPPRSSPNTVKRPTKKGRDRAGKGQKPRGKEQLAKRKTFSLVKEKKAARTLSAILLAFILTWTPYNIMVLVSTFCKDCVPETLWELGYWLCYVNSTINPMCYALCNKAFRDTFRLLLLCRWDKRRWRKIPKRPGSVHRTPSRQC

`NS(=O)(=O)c1cc(NC(=O)Cc2ccccc2)ccc1Oc1cccc(Cl)c1` [BAY-1797] gave a residual activity [1] of 55%, a residual activity [2] of 100% and a residual activity [3] of 58%. It also gave a residual activity [4] of 86%, a residual activity [5] of 68% and a residual activity [6] of 81%. The residual activity [7] was 91%, the residual activity [8] was 86% and the residual activity [9] was 97%. The residual activity [10] was 79%, the residual activity [11] was 90% and the residual activity [12] was 99%. The residual activity [13] was 81%, the residual activity [14] was 83% and the residual activity [15] was 85%. It also gave a residual activity [16] of 100%, a residual activity [17] of 83% and a residual activity [18] of 88%. The residual activity [19] was 100%, the residual activity [20] was 92% and the residual activity [21] was 81%. For the same compound, the residual activity [22] was 89%, the residual activity [23] was 100% and the residual activity [24] was 100%. The residual activity [25] was 91%, the residual activity [26] was 100% and the residual activity [27] was 89%. The residual activity [28] was 96%, the residual activity [29] was 79% and the residual activity [30] was 73%. For the same compound, the residual activity [31] was 100%, the residual activity [32] was 100% and the residual activity [33] was 99%. For the same compound, the residual activity [34] was 79%, the residual activity [35] was 73% and the inhibition [36] was 21.6%. The inhibition [37] was 14.3% and the inhibition [38] was 11.4%.

In the case of `NS(=O)(=O)c1cc(NC(=O)C2(c3ccccc3Cl)CC2)ccc1Oc1cccc(Cl)c1` [BAY-207], the residual activity [1] is reported as 71%, the residual activity [2] is reported as 79% and the residual activity [3] is reported as 84%. For the same compound, the residual activity [4] was 89%, the residual activity [5] was 91% and the residual activity [6] was 100%. For the same compound, the residual activity [7] was 97%, the residual activity [8] was 68% and the residual activity [9] was 100%. The residual activity [10] was 100%, the residual activity [11] was 70% and the residual activity [12] was 90%. For the same compound, the residual activity [13] was 79%, the residual activity [14] was 85% and the residual activity [15] was 100%. For the same compound, the residual activity [16] was 89%, the residual activity [17] was 84% and the residual activity [18] was 94%. For the same compound, the residual activity [19] was 67%, the residual activity [20] was 100% and the residual activity [21] was 73%. The residual activity [22] was 89%, the residual activity [23] was 88% and the residual activity [24] was 69%. The residual activity [25] was 100%, the residual activity [26] was 48% and the residual activity [27] was 90%. It also gave a residual activity [28] of 65%, a residual activity [29] of 91% and a residual activity [30] of 73%. For the same compound, the residual activity [31] was 100%, the residual activity [32] was 80% and the residual activity [33] was 99%. It also gave a residual activity [34] of 82%, a residual activity [35] of 100% and an inhibition [36] of 3.57%. The inhibition [37] was -3.09% and the inhibition [38] was -3.55%.

— ChEMBL document CHEMBL4507265 (2021)
